Values joined by “and” are separate entries in the source; they are usually repeats but may differ in a detail not shown here. Equal values may be shown once. Inconclusive results and toxic doses are left out. The calls were made as follows: active = survival T/C of 150% or more; inactive = T/C below 125% in these data.
Test system: CD2F1 mice, L1210 leukemia ip, survival T/C
Assay: NCI In Vivo Anticancer Drug Screen. Data for tumor model L1210 Leukemia (intraperitoneal) in CD2F1 (CDF1) mice
Conditions: higher = longer survival
Outline: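 Antitumor effect is scored in animals hosting a serially transplanted tumor. Values compare compound-dosed animals against vehicle-only controls as a simple quotient.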

[1] = endpoint: mean survival time, dose: 100.0 mg/kg/injection, schedule: Q01DX001 (ip), vehicle: saline with Tween-80
[2] = endpoint: mean survival time, dose: 200.0 mg/kg/injection, schedule: Q01DX001 (ip), vehicle: saline with Tween-80
[3] = endpoint: mean survival time, dose: 400.0 mg/kg/injection, schedule: Q01DX001 (ip), vehicle: saline with Tween-80
[4] = endpoint: mean survival time, dose: 100.0 mg/kg/injection, schedule: Q04DX003 (ip), vehicle: saline
[5] = endpoint: mean survival time, dose: 200.0 mg/kg/injection, schedule: Q04DX003 (ip), vehicle: saline
[6] = endpoint: mean survival time, dose: 400.0 mg/kg/injection, schedule: Q04DX003 (ip), vehicle: saline

Measured: T/C

O=c1ccn(C2CC(O)C(COC(c3ccccc3)(c3ccccc3)c3ccccc3)O2)c(=O)[nH]1 (stereo not given)
inactive: endpoint: median survival time, dose: 12.5 mg/kg/injection, schedule: Q01DX005 (ip), vehicle: saline with Tween-80 98 % of control and 97 % of control | endpoint: median survival time, dose: 25.0 mg/kg/injection, schedule: Q01DX005 (ip), vehicle: saline with Tween-80 99 % of control and 92 % of control | endpoint: median survival time, dose: 50.0 mg/kg/injection, schedule: Q01DX005 (ip), vehicle: saline with Tween-80 99 % of control and 96 % of control | endpoint: median survival time, dose: 100.0 mg/kg/injection, schedule: Q01DX005 (ip), vehicle: saline with Tween-80 100 % of control and 96 % of control | endpoint: median survival time, dose: 200.0 mg/kg/injection, schedule: Q01DX005 (ip), vehicle: saline with Tween-80 100 % of control and 98 % of control

C=C1N(c2cc3ccccc3o2)C(=O)OC12CCCCC2
inactive: [1] 101 % of control | [2] 98 % of control | [3] 91 % of control

Nc1ccc(Cl)cc1C(=O)c1ccc[nH]1
inactive: endpoint: mean survival time, dose: 100.0 mg/kg/injection, schedule: Q01DX001 (ip), vehicle: saline 101 % of control | [4] 94 % of control | endpoint: mean survival time, dose: 200.0 mg/kg/injection, schedule: Q01DX001 (ip), vehicle: saline 98 % of control | [5] 94 % of control | endpoint: mean survival time, dose: 400.0 mg/kg/injection, schedule: Q01DX001 (ip), vehicle: saline 93 % of control | [6] 94 % of control

O=C(NCCCl)NC1C(O)OC(CO)C(O)C1O (stereo not given)
inactive: endpoint: mean survival time, dose: 12.5 mg/kg/injection, schedule: Q01DX009 (ip), vehicle: water 107 % of control | endpoint: mean survival time, dose: 25.0 mg/kg/injection, schedule: Q01DX009 (ip), vehicle: water 107 % of control | endpoint: mean survival time, dose: 50.0 mg/kg/injection, schedule: Q01DX009 (ip), vehicle: water 104 % of control | endpoint: mean survival time, dose: 100.0 mg/kg/injection, schedule: Q01DX009 (ip), vehicle: water 104 % of control | endpoint: mean survival time, dose: 200.0 mg/kg/injection, schedule: Q01DX009 (ip), vehicle: water 105 % of control

NCCc1cc(O)c(O)c(O)c1
inactive: endpoint: mean survival time, dose: 12.5 mg/kg/injection, schedule: Q01DX009 (ip), vehicle: saline 96 % of control and 100 % of control | endpoint: mean survival time, dose: 25.0 mg/kg/injection, schedule: Q01DX009 (ip), vehicle: saline 100 % of control and 102 % of control | endpoint: mean survival time, dose: 50.0 mg/kg/injection, schedule: Q01DX009 (ip), vehicle: saline 103 % of control and 106 % of control | endpoint: mean survival time, dose: 100.0 mg/kg/injection, schedule: Q01DX009 (ip), vehicle: saline 122 % of control | endpoint: mean survival time, dose: 200.0 mg/kg/injection, schedule: Q01DX009 (ip), vehicle: saline 119 % of control and 124 % of control | endpoint: mean survival time, dose: 400.0 mg/kg/injection, schedule: Q01DX009 (ip), vehicle: saline 119 % of control

O=c1ccccn1CC(O)S(=O)(=O)O (stereo not given)
inactive: [4] 95 % of control | [5] 92 % of control | [6] 100 % of control

Cc1c(C#N)sc2ccccc12
inactive: endpoint: mean survival time, dose: 50.0 mg/kg/injection, schedule: Q01DX009 (ip), vehicle: other 112 % of control | endpoint: mean survival time, dose: 100.0 mg/kg/injection, schedule: Q01DX009 (ip), vehicle: other 95 % of control | endpoint: mean survival time, dose: 100.0 mg/kg/injection, schedule: Q04DX003 (ip), vehicle: other 109 % of control | endpoint: mean survival time, dose: 200.0 mg/kg/injection, schedule: Q04DX003 (ip), vehicle: other 92 % of control

CC(=O)Nc1ccccc1C(C)=O
inactive: endpoint: mean survival time, dose: 100.0 mg/kg/injection, schedule: Q01DX009 (ip), vehicle: saline with Tween-80 110 % of control | endpoint: mean survival time, dose: 200.0 mg/kg/injection, schedule: Q01DX009 (ip), vehicle: saline with Tween-80 109 % of control

CCOC(=O)Nc1cc2c(c(N)n1)N=C(c1ccc(Cl)cc1)CN2
inactive: endpoint: mean survival time, dose: 3.0 mg/kg/injection, schedule: Q01DX009 (ip), vehicle: Klucel (hydroxypropylcellulose) (HPC) 110 % of control | endpoint: mean survival time, dose: 6.0 mg/kg/injection, schedule: Q01DX009 (ip), vehicle: Klucel (hydroxypropylcellulose) (HPC) 110 % of control | endpoint: mean survival time, dose: 12.0 mg/kg/injection, schedule: Q01DX009 (ip), vehicle: Klucel (hydroxypropylcellulose) (HPC) 114 % of control | endpoint: mean survival time, dose: 12.5 mg/kg/injection, schedule: Q01DX001 (ip), vehicle: Klucel (hydroxypropylcellulose) (HPC) 102 % of control | endpoint: mean survival time, dose: 25.0 mg/kg/injection, schedule: Q01DX001 (ip), vehicle: Klucel (hydroxypropylcellulose) (HPC) 111 % of control | endpoint: mean survival time, dose: 25.0 mg/kg/injection, schedule: Q01DX009 (ip), vehicle: Klucel (hydroxypropylcellulose) (HPC) 110 % of control | endpoint: mean survival time, dose: 50.0 mg/kg/injection, schedule: Q01DX001 (ip), vehicle: Klucel (hydroxypropylcellulose) (HPC) 114 % of control | endpoint: mean survival time, dose: 100.0 mg/kg/injection, schedule: Q01DX001 (ip), vehicle: Klucel (hydroxypropylcellulose) (HPC) 116 % of control

N=C(OC/C=C/c1ccccc1)C(Cl)(Cl)Cl
inactive: [1] 93 % of control | [2] 93 % of control | [3] 93 % of control

From PubChem BioAssay AID256 (DTP/NCI, 2004)
